Measurements reported in article PMC3684959 (Chemistry & biology, 2013).

Key:
Arp3 (Arp2/3 complex) [1] = target: T1, Arp3 (Arp2/3 complex) (Bos taurus, UniProt P61157); experiment: X-ray co-crystal structure, […] Å, with CK-869 also bound; type: binding
Arp3 (Arp2/3 complex) [2] = target: T1, Arp3 (Arp2/3 complex); experiment: fluorescence titration of BtArp2/[…] complex with ε-ATP; type: binding

Kd (Arp3 (Arp2/3 complex) [2]) | SMILES | X-ray co-crystal structure, 2.5 Å, with CK-869 also bound (Arp3 (Arp2/3 complex) [1])
 | Nc1ncnc2c1ncn2[C@@H]1O[C@H](COP(=O)(O)OP(=O)(O)OP(=O)(O)O)[C@@H](O)[C@H]1O [ATP] | show strong density for both ATP and CK-869 bound to Arp3 subunit
3 ± 0.4 µM | O=P(O)(O)OP(=O)(O)OP(=O)(O)OC[C@H]1O[C@@H](n2cnc3c2ncn2ccnc32)[C@H](O)[C@@H]1O [ε-ATP] | 
